Measured values as given in the NIST ThermoML archive (doi:10.1021/je3010062).

Details: 101.33 kPa, Liquid; for viscosity: Concentric cylinders viscometry; for mass density: Vibrating tube method; for electrical conductivity: syringe-type cell with a pair of platinum electrodes

CCCCCCC[N+](C)(C)CC.O=S(=O)([N-]S(=O)(=O)C(F)(F)F)C(F)(F)F
Details | electrical conductivity [S/m] | mass density [kg/m3] | viscosity [mPa·s]
273.15 K | 0.0157 | 1311.95 | 944.3
278.15 K | 0.023 | 1307.78 | 634.1
283.15 K | 0.0328 | 1303.56 | 437.8
288.15 K | 0.0454 | 1299.38 | 310.5
293.15 K | 0.0614 | 1295.2 | 225.7
298.15 K | 0.081 | 1291 | 167.7
303.15 K | 0.105 | 1286.82 | 127.6
313.15 K | 0.167 | 1278.51 | 77.77
323.15 K | 0.249 | 1270.28 | 50.63
333.15 K | 0.353 | 1262.09 | 34.68
343.15 K | 0.48 | 1253.97 | 24.84
353.15 K | 0.631 | 1245.9 | 18.49
363.15 K | – | 1237.87 | 14.18

CC[N+](C)(C)CCOCCOC.O=S(=O)([N-]S(=O)(=O)C(F)(F)F)C(F)(F)F
Details | electrical conductivity [S/m] | mass density [kg/m3] | viscosity [mPa·s]
273.15 K | 0.0681 | 1414.1 | 243.5
278.15 K | 0.0936 | 1409.65 | 173.6
283.15 K | 0.125 | 1404.97 | 127.5
288.15 K | 0.162 | 1400.31 | 96.35
293.15 K | 0.206 | 1395.68 | 74.27
298.15 K | 0.257 | 1391.07 | 58.57
303.15 K | 0.315 | 1386.49 | 47.19
313.15 K | 0.451 | 1377.4 | 32.03
323.15 K | 0.616 | 1368.39 | 22.89
333.15 K | 0.81 | 1359.45 | 17.02
343.15 K | 1.02 | 1350.57 | 13.14
353.15 K | 1.27 | 1341.75 | 10.39
363.15 K | – | 1332.98 | 8.433
